Reference: US20230382925A1, “MODULATORS OF CYSTIC FIBROSIS TRANSMEMBRANE CONDUCTANCE REGULATOR” (VERTEX PHARMACEUTICALS INCORPORATED, priority 2020, published 2023)
Where two headings read alike, the source gives them in different places.

Target: CFTR (Homo sapiens, UniProt P13569)
Assay: Membrane Potential Dye, Enteroid Assay B
Assay type: cell-based
How it was run: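 Human intestinal enteroid cells exposed to compound 18-24 h at 37 °C, then loaded with methyl oxonol membrane-potential dye plus CaCC blockers. Chloride transport triggered in chloride-free buffer with 10 μM forskolin, 100 μM IBMX, 300 nM Compound III; fluorescence read 15 min, expressed as % of triple-corrector/potentiator combination control.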

[1] = Table 10, read-out: Ent. B EC50

CFTR, sequence (P13569 with tags, fused parts or gaps DEL508-508): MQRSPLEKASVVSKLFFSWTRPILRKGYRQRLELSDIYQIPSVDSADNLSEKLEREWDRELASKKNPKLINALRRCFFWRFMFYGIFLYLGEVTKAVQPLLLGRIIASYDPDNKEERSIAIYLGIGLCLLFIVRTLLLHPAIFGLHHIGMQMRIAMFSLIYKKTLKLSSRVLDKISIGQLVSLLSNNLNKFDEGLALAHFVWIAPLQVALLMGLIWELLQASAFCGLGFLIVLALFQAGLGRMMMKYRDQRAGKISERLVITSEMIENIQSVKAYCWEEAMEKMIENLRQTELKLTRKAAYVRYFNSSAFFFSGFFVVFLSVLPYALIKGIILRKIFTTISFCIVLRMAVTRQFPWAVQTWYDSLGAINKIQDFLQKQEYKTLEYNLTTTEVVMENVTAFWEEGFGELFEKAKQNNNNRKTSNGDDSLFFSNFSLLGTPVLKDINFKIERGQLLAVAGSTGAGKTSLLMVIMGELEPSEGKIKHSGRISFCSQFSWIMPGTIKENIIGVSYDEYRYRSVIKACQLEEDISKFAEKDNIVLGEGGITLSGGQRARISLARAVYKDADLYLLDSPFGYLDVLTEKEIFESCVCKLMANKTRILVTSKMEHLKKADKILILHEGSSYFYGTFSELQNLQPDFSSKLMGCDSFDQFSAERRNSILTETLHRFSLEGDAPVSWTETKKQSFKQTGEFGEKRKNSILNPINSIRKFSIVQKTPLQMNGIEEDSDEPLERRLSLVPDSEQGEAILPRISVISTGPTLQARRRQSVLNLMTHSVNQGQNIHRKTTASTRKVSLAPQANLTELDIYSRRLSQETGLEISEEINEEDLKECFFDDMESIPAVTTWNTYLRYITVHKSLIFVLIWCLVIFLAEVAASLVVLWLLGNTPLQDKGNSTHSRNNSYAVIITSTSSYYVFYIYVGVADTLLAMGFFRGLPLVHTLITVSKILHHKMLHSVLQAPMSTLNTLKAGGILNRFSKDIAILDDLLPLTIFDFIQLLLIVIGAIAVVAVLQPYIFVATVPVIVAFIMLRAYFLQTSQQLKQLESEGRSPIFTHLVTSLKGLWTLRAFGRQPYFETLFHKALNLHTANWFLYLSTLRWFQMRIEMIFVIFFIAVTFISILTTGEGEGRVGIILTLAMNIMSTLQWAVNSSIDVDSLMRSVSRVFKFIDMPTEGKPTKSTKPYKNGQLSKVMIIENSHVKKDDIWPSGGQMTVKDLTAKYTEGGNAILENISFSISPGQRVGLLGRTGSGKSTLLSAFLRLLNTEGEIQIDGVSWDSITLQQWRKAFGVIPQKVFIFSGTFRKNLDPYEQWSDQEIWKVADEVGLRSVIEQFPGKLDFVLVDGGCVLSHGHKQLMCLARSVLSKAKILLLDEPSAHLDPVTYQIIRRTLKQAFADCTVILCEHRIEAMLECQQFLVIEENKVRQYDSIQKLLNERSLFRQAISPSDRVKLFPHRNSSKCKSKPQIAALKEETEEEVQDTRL

SMILES | Ent. B Max Activity (%) (Table 10) | EC50 [1] [µM] | other results
Cc1cccc(C)c1-c1cc2nc(n1)NS(=O)(=O)c1cccc(c1)C(=O)N(C1CC(CO)(CO)C1)[C@H](CC(C)(C)C)CO2 [Compound 158, (11R)-12-[3,3-Bis(hydroxymethyl)cyclobutyl]-6-(2,6-dimethylphenyl)-11-(2,2-dimethylpropyl)-9-oxa-2λ^6-thia-3,5,12,19-tetraazatricyclo[12.3.1.14,8]nonadeca-1(17),4(19),5,7,14(18),15-hexaene-2,2,13-trione] | +++ (+++ is >60%) | 1 to 3 | –
Cc1cccc(C)c1-c1cc2nc(n1)NS(=O)(=O)c1cccc(n1)C(=O)N(C1CC3(CC3)C1)[C@H](CC(C)C)CO2 [Compound 164, (11R)-6-(2,6-Dimethylphenyl)-11-isobutyl-2,2-dioxo-12-spiro[2.3]hexan-5-yl-9-oxa-2λ^6-thia-3,5,12,18,19-pentazatricyclo[12.3.1.14,8]nonadeca-1(18),4(19),5,7,14,16-hexaen-13-one] | – | – | Ent. B Max Activity (%): +++ (+++ is >60%); EC50 (read-out: Ent. B EC50): < 1 µM
Cc1cccc(C)c1-c1cc2nc(n1)NS(=O)(=O)c1cccc(c1)C(=O)N(C1CC3(CCN(C(=O)OC(C)C)CC3)C1)C[C@@H](C)O2 [Compound 181, Isopropyl 2-[(10R)-6-(2,6-dimethylphenyl)-10-methyl-2,2,13-trioxo-9-oxa-2λ^6-thia-3,5,12,19-tetrazatricyclo[12.3.1.14,8]nonadeca-1(18),4(19),5,7,14,16-hexaen-12-yl]-7-azaspiro[3.5]nonane-7-carboxylate] | – | – | Ent. B Max Activity (%): +++ (+++ is >60%); EC50 (read-out: Ent. B EC50): < 1 µM
CC(C)C[C@@H]1COc2cc(-c3c(C(F)(F)F)cccc3C(F)(F)F)nc(n2)NS(=O)(=O)c2cccc(c2)C(=O)N1C1CC2(CC2)C1 [Compound 186, (11R)-6-[2,6-Bis(trifluoromethyl)phenyl]-11-isobutyl-2,2-dioxo-12-spiro[2.3]hexan-5-yl-9-oxa-2λ^6-thia-3,5,12,19-tetrazatricyclo[12.3.1.14,8]nonadeca-1(18),4,6,8(19),14,16-hexaen-13-one] | – | – | Ent. B Max Activity (%) (Table 9): ++ (++ is 30-60%); EC50 (Table 9, read-out: Ent. B EC50): < 1 µM
COCCCN1CCC2(CC1)CC(N1C(=O)c3cccc(c3)S(=O)(=O)Nc3nc(cc(-c4c(C)cccc4C)n3)OC[C@H]1CC(C)(C)C(F)(F)F)C2 [Compound 188, (11R)-6-(2,6-dimethylphenyl)-12-[7-(3-methoxypropyl)-7-azaspiro[3.5]nonan-2-yl]-11-(3,3,3-trifluoro-2,2-dimethylpropyl)-9-oxa-2λ^6-thia-3,5,12,19-tetraazatricyclo[12.3.1.14,8]nonadeca-1(17),4(19),5,7,14(18),15-hexaene-2,2,13-trione] | – | – | Ent. B Max Activity (%) (Table 9): +++ (+++ is >60%); EC50 (Table 9, read-out: Ent. B EC50): < 1 µM
Cc1cccc(C)c1-c1cc2nc(n1)NS(=O)(=O)c1cccc(c1)C(=O)N(C1CC3(CCN(CCOC(C)C)CC3)C1)[C@H](CC(C)(C)C(F)(F)F)CO2 [Compound 189, (11R)-6-(2,6-dimethylphenyl)-12-{7-[2-(propan-2-yloxy)ethyl]-7-azaspiro[3.5]nonan-2-yl}-11-(3,3,3-trifluoro-2,2-dimethylpropyl)-9-oxa-2λ^6-thia-3,5,12,19-tetraazatricyclo[12.3.1.14,8]nonadeca-1(17),4(19),5,7,14(18),15-hexaene-2,2,13-trione] | – | – | Ent. B Max Activity (%) (Table 9): +++ (+++ is >60%); EC50 (Table 9, read-out: Ent. B EC50): < 1 µM
COCCN1CCC2(CC1)CC(N1C(=O)c3cccc(c3)S(=O)(=O)Nc3nc(cc(-c4c(C)cccc4C)n3)OC[C@H]1CC(C)(C)C(F)(F)F)C2 [Compound 190, (11R)-6-(2,6-dimethylphenyl)-12-[7-(2-methoxyethyl)-7-azaspiro[3.5]nonan-2-yl]-11-(3,3,3-trifluoro-2,2-dimethylpropyl)-9-oxa-2λ^6-thia-3,5,12,19-tetraazatricyclo[12.3.1.14,8]nonadeca-1(17),4(19),5,7,14(18),15-hexaene-2,2,13-trione] | – | – | Ent. B Max Activity (%) (Table 9): +++ (+++ is >60%); EC50 (Table 9, read-out: Ent. B EC50): < 1 µM
COC(=O)N1CCC2(CC1)CC(N1C(=O)c3cccc(c3)S(=O)(=O)Nc3nc(cc(-c4c(C)cccc4C)n3)OC[C@H]1CC(C)(C)C(F)(F)F)C2 [Compound 191, Methyl 2-[(11R)-6-(2,6-dimethylphenyl)-2,2,13-trioxo-11-(3,3,3-trifluoro-2,2-dimethylpropyl)-9-oxa-2λ^6-thia-3,5,12,19-tetraazatricyclo[12.3.1.14,8]nonadeca-1(17),4(19),5,7,14(18),15-hexaen-12-yl]-7-azaspiro[3.5]nonane-7-carboxylate] | – | – | Ent. B Max Activity (%) (Table 9): +++ (+++ is >60%); EC50 (Table 9, read-out: Ent. B EC50): < 1 µM
Cc1cccc(C)c1-c1cc2nc(n1)NS(=O)(=O)c1cccc(c1)C(=O)N(C1CC3(CCNC(=O)C3)C1)[C@H](CC(C)C)CO2 (stereo partly shown) [Compound 200] | ++ (++ is 30-60%) | < 1 | –
Cc1cccc(C)c1-c1cc2nc(n1)NS(=O)(=O)c1cccc(c1)C(=O)N(C1CC3(CCNC(=O)C3)C1)[C@H](CC(C)C)CO2 (stereo partly shown) [Compound 201] | ++ (++ is 30-60%) | < 1 | –
CC(C)C[C@@H]1COc2cc(-c3c(F)cccc3C(F)(F)F)nc(n2)NS(=O)(=O)c2cccc(c2)C(=O)N1C1CC2(CC2)C1 [Compound 202] | ++ (++ is 30-60%) | < 1 | –
CC(=O)N1CCC12CC(N1C(=O)c3cccc(c3)S(=O)(=O)Nc3nc(cc(-c4c(C)cccc4C)n3)OC[C@H]1CC(C)(C)C)C2 (stereo partly shown) [Compound 207] | +++ (+++ is >60%) | < 1 | –
Cc1cccc(C)c1-c1cc2nc(n1)NS(=O)(=O)c1cccc(c1)C(=O)N(C1CCCCC1)[C@H](CC(C)(C)C)CO2 [Compound 208] | + (+ is <300%) | – | –
Cc1cccc(C)c1-c1cc2nc(n1)NS(=O)(=O)c1cccc(c1)C(=O)N([C@H]1C[C@@H](OC(F)(F)C(F)(F)F)C1)[C@H](CC(C)C)CO2 [Compound 210] | ++ (++ is 30-60%) | < 1 | –
Cc1cccc(C)c1-c1cc2nc(n1)NS(=O)(=O)c1cccc(c1)C(=O)N([C@H]1C[C@H](OC(F)(F)C(F)(F)F)C1)[C@H](CC(C)C)CO2 [Compound 211] | + (+ is <300%) | – | –
Cc1cccc(C)c1-c1cc2nc(n1)NS(=O)(=O)c1cccc(c1)C(=O)N(C1CC3(CCN(CCOC(C)C)CC3)C1)[C@H](CC(C)(C)C)CO2 [Compound 215] | – | – | Ent. B Max Activity (%): +++ (+++ is >60%); EC50 (read-out: Ent. B EC50): < 1 µM
Cc1cccc(C)c1-c1cc2nc(n1)NS(=O)(=O)c1cccc(c1)C(=O)N(C1CC3(CC3)C1)C(CC(C)(C)C(F)(F)F)CO2 (stereo not shown) [Compound 217] | – | – | Ent. B Max Activity (%): +++ (+++ is >60%); EC50 (read-out: Ent. B EC50): < 1 µM
Cc1cccc(C)c1-c1cc2nc(n1)NS(=O)(=O)c1cccc(c1)C(=O)N(C1CS(=O)(=O)C1)[C@H](CC(C)(C)C)CO2 [Compound 222] | +++ (+++ is >60%) | < 1 | –
COC(=O)N1CCC(n2cc(N3C(=O)c4cccc(c4)S(=O)(=O)Nc4nc(cc(-c5c(C)cccc5C)n4)OC[C@H]3CC(C)(C)C)cn2)CC1 [Compound 223] | + (+ is <300%) | < 1 | –
COCCN1CCC(n2cc(N3C(=O)c4cccc(c4)S(=O)(=O)Nc4nc(cc(-c5c(C)cccc5C)n4)OC[C@H]3CC(C)(C)C)cn2)CC1 [Compound 224] | + (+ is <300%) | – | –
COCCn1cc(N2C(=O)c3cccc(c3)S(=O)(=O)Nc3nc(cc(-c4c(C)cccc4C)n3)OC[C@H]2CC(C)(C)C)cn1 [Compound 225] | +++ (+++ is >60%) | < 1 | –
Cc1cccc(C)c1-c1cc2nc(n1)NS(=O)(=O)c1cccc(c1)C(=O)N(c1cnn(C3CCN(Cc4ccccc4)CC3)c1)[C@H](CC(C)(C)C)CO2 [Compound 226] | + (+ is <300%) | < 1 | –
Cc1cccc(C)c1-c1cc2nc(n1)NS(=O)(=O)c1cccc(c1)C(=O)N(c1cn(C)nc1C)[C@H](CC(C)(C)C)CO2 [Compound 227] | +++ (+++ is >60%) | < 1 | –
Cc1cccc(C)c1-c1cc2nc(n1)NS(=O)(=O)c1cccc(c1)C(=O)N(c1cnn(C(C)C)c1)[C@H](CC(C)(C)C)CO2 [Compound 228] | +++ (+++ is >60%) | < 1 | –
Cc1cccc(C)c1-c1cc2nc(n1)NS(=O)(=O)c1cccc(c1)C(=O)N(c1cnn(CC(C)C)c1)[C@H](CC(C)(C)C)CO2 [Compound 229] | +++ (+++ is >60%) | < 1 | –
Cc1cccc(C)c1-c1cc2nc(n1)NS(=O)(=O)c1cccc(c1)C(=O)N(c1cnn(C)c1)[C@H](CC(C)(C)C)CO2 [Compound 230] | +++ (+++ is >60%) | < 1 | –
CCC(=O)N1C[C@H]2C[C@@H](C1)[C@H]2N1C(=O)c2cccc(c2)S(=O)(=O)Nc2nc(cc(-c3c(C)cccc3C)n2)OC[C@H]1CC(C)(C)C [Compound 231] | ++ (++ is 30-60%) | – | EC50 (read-out: Ent. B EC50, Table 10): < 1 µM
Cc1cccc(C)c1-c1cc2nc(n1)NS(=O)(=O)c1cccc(c1)C(=O)N(C1CC3(CC(C(N)=O)C3)C1)[C@H](CC(C)(C)C)CO2 (stereo partly shown) [Compound 232] | +++ (+++ is >60%) | < 1 | –
Cc1cccc(C)c1-c1cc2nc(n1)NS(=O)(=O)c1cccc(c1)C(=O)N(C1CC3(CC(C(N)=O)C3)C1)[C@H](CC(C)(C)C)CO2 (stereo partly shown) [Compound 233] | +++ (+++ is >60%) | < 1 | –
